How the values were obtained:
E. coli O78 = assay: Bacterial growth delay (Bioscreen C), E. coli; assay type: cell-based, Escherichia coli; settings: for Cmax, E. coli, DMEM: DMEM + FCS (10%); for Cmax, E. coli, DMEM / Cmax: cathelicidin concentration resulting in a delay in bacterial growth with minimal 10 hours, E. coli, MHB: 1 × 10^6 CFU/ml, peptide 0.31-20 μM, 16 h, 37 °C, — = no Cmax reached up to 20 μM; for Cmax, E. coli, DMEM / Cmax: cathelicidin concentration resulting in a delay in bacterial growth with minimal 10 hours, E. coli, MHB / Max: hours growth delay with 20 μM cathelicidin, E. coli, DMEM / Max: hours growth delay with 20 μM cathelicidin, E. coli, MHB: N = 4; for Delay of the growth of E. coli / Summary class, antimicrobial activity E. coli DMEM / Max: hours growth delay with 20 μM cathelicidin, E. coli, DMEM: DMEM + FCS; for Delay of the growth of E. coli: peptide concentration not given (0.31-20 μM tested); for Summary class, antimicrobial activity E. coli DMEM / Summary class, antimicrobial activity E. coli MHB: − is not defined in the key; for Cmax: cathelicidin concentration resulting in a delay in bacterial growth with minimal 10 hours, E. coli, MHB: 200 RPM; for Cmax: cathelicidin concentration resulting in a delay in bacterial growth with minimal 10 hours, E. coli, MHB / Max: hours growth delay with 20 μM cathelicidin, E. coli, MHB: time to OD 0.6 vs control; for Max: hours growth delay with 20 μM cathelicidin, E. coli, DMEM / Max: hours growth delay with 20 μM cathelicidin, E. coli, MHB: 20 μM peptide, given if no Cmax was reached
Description: (§1) E. coli O78 (Zoetis Animal Health, Kalamazoo, MI, USA), E. coli ATCC 25922, Staphylococcus aureus ATCC 29213, and methicillin resistant Staphylococcus aureus (MRSA) (WKZ-2, human clinical isolate) were grown overnight from a glycerol stock in Mueller Hinton Broth (MHB) (Becton Dickinson, USA). Before use, bacteria were grown to mid-log phase in MHB for 2 hours at 37 °C, 200 RPM. Murine RAW264.7 macrophages (ATCC-TIB-71) were obtained from the American Type Culture Collection (ATCC, Manassas, VA, USA) and cultured in DMEM (41966-029; Thermo Fisher Scientific, Waltham, MA, USA) supplemented with 10% FCS (Bodinco B.V., Alkmaar, the Netherlands) (DMEM + FCS) at 37 °C, 5.0% CO2. Cells were seeded in 96-wells plates at 5 × 10^5 cells/ml or 12-wells plates at 2 × 10^5/ml for adherence overnight prior to stimulation.
(§2) Peptides (0.63 to 40 μM) and bacteria mid-log cultures (2 * 10^6 CFU/ml) were prepared in MHB or DMEM + FCS and mixed (100 μl peptide + 100 μl bacterial culture) in a Bioscreen C analyzer plate (Oy Growth Curves Ab Ltd, Helsingfors, Finland). Plates were placed in a Bioscreen C analyzer (Oy Growth Curves Ab Ltd) and bacteria were grown for 16 h at 37 °C with 200 RPM. The OD was measured every 15 minutes using a wideband filter (450–580 nm) to measure bacterial growth. The time needed grow above an OD of 0.6 was determined for all concentrations. Activity of peptides was expressed as the Cmax, the concentration of peptide required to delay the growth for 10 h compared to the control. Or, for peptides with low activity (no Cmax), activity was expressed as the hours of growth delay at 20 μM. Unlike the classic MIC and MBC determination used in microbiology, this method also enabled comparison of peptides with low antibacterial activity.
(§3) Twelve cathelicidins from 6 different species were selected for this study, namely: human LL-37, murine CRAMP, dog K9CATH, equine CATH (eCATH)-1, -2 and -3, chicken CATH (chCATH)-1, -2, and -3, porcine PMAP-23 and -36 and PR-39 (Table 1). Antimicrobial activity against E. coli and MRSA was directly compared under standardized conditions in MHB, a medium optimized for bacterial growth. Bacterial growth delay was defined as the delay in hours for peptide-treated bacteria to reach an OD of 0.6, compared to the non-treated control. Cmax is the minimal concentration needed to delay growth for a minimum of 10 hours compared to the non-treated control (Table 1 and Fig. 1A).
(§4) Figure 1 Antibacterial activity of cathelicidins. E. coli and MRSA (1 × 10^6 CFU/ml) of were grown in MHB or DMEM ± FCS for 16 hours under constant shaking (200 RPM). Every 15 minutes the OD was measured. Growth delay was defined as the time needed for peptide-treated bacteria to grow above an OD of 0.6 compared to the control bacteria (no peptide added) (A). Cathelicidins were tested in different concentrations (0.31 μM, 0.63 μM, 1.25 μM, 2.5 μM, 5 μM, 10 μM, and 20 μM) to determine the antimicrobial activity in MHB against E. coli (B) or MRSA (C) and in more physiological medium DMEM + FCS (D,E). Results are presented as average +/− SEM (N = 4).

[1] = test system: methicillin resistant Staphylococcus aureus (MRSA) (WKZ-2, human clinical isolate); assay: Bacterial growth delay (Bioscreen C), MRSA; assay type: cell-based; settings: for Cmax, MRSA, DMEM / Summary class, antimicrobial activity S. aureus DMEM / Max: hours growth delay with 20 μM cathelicidin, MRSA, DMEM: DMEM + FCS; for Cmax, MRSA, DMEM / Cmax, MRSA, MHB: 1 × 10^6 CFU/ml, peptide 0.31-20 μM, 16 h, 37 °C, — = no Cmax reached up to 20 μM; for Cmax, MRSA, DMEM / Cmax, MRSA, MHB / Max: hours growth delay with 20 μM cathelicidin, MRSA, DMEM / Max: hours growth delay with 20 μM cathelicidin, MRSA, MHB: N = 4; for Summary class, antimicrobial activity S. aureus DMEM / Summary class, antimicrobial activity S. aureus MHB: MRSA, − is not defined in the key; for Max: hours growth delay with 20 μM cathelicidin, MRSA, DMEM / Max: hours growth delay with 20 μM cathelicidin, MRSA, MHB: 20 μM peptide, given if no Cmax was reached
Description: as §1, §2, §3, §4

[2] = test system: CCL2 (MCP-1) release by RAW264.7 cells; assay: Cathelicidin induced CCL2 release; assay type: cell-based, murine; settings: for Summary class, chemokines CCL2 (2 h): 2 h stimulation, − = no significant effect, N = 3
Description: as §1
(§5) ELISA Duoset kits for mouse TNFα, CCL5, CXCL10 and IL-10 were obtained from R&D systems (Minneapolis, MN, USA) and ELISAs were performed according to the manufacturer’s protocol. Samples were stored at −20 °C until analysis and, if needed, diluted in 1% BSA in PBS, pH 7.4. Absorbance at 450 nm was determined in a FLUOstar Omega microplate reader (BMG Labtech GmbH) and corrected for absorbance at 570 nm. Results were analyzed with MARS data analysis software (BMG Labtech GmbH).
(§6) Since cathelicidins have membrane-perturbing properties which might affect the host’s cell membrane, first the possible cytotoxicity of the cathelicidins to RAW264.7 cells was assessed. […] Next, RAW264.7 cells were stimulated with the cathelicidins at various concentrations for 2 h and 24 h, after which release of CCL2 (MCP-1), CCL5 (RANTES), CXCL10 (IP-10), TNFα and IL-10 was determined.
(§7) Figure 2 Cathelicidin induced chemokine and cytokine release by RAW264.7 cells. RAW264.7 cells were incubated for 2 h and 24 h with cathelicidins (0.08 μM, 0.31 μM, 1.25 μM, 5 μM, and 20 μM), after which the supernatants were harvested and tested for release of CCL2 at 2 h (A) and 24 h (B), CCL5 at 24 h (C) and CXCL10 at 24 h (D). Dotted line represents average cytokine release of control samples. Results are presented as average +/− SEM (N = 3). Statistical differences were determined by Two-way ANOVA with Bonferroni post-hoc test.

[3] = test system: CXCL10 (IP-10) release by RAW264.7 cells; assay: Cathelicidin induced CXCL10 release; assay type: cell-based, murine; settings: for Increase of CXCL10 secretion after 24 h stimulation: 20 μM peptide; for Summary class, chemokines CXCL10 (24 h): 24 h stimulation, peptide 0.08-20 μM, − = no significant effect, N = 3
Description: as §1
RAW264.7 cells were stimulated with 100 ng/ml LPS E. coli O111:B4, 1 μg/ml LTA S. aureus or 2.5 nM ODN-1826 in the presence of various concentrations of different cathelicidins. TNFα release was determined after 2 h for LPS and LTA stimulation and 24 h for ODN-1826 stimulation. CXCL10, CCL5 and IL-10 release were all determined after 24 h stimulation. As a control, RAW264.7 cells were stimulated for 2 h with 10^6 CFU/ml live or heat-killed (70 °C, 0.5 h) E. coli O78, followed by a double wash with cell culture medium and subsequent 22 h incubation in cell culture medium supplemented with 250 μg/ml gentamicin.
as §5, §6, §7

Row | Substance | Cmax, E. coli, DMEM (E. coli O78) | Delay of the growth of E. coli (E. coli O78) | Summary class, antimicrobial activity E. coli DMEM (E. coli O78) | Cmax: cathelicidin concentration resulting in a delay in bacterial growth with minimal 10 hours, E. coli, MHB (E. coli O78) | Summary class, antimicrobial activity E. coli MHB (E. coli O78) | Cmax, MRSA, DMEM [1] | Summary class, antimicrobial activity S. aureus DMEM [1] | Cmax, MRSA, MHB ([1]; MHB) | Summary class, antimicrobial activity S. aureus MHB ([1]; MHB) | Enhancement of CCL2 secretion after 2 h stimulation ([2]; 5 μM peptide) | Increase of CXCL10 secretion after 24 h stimulation [3] | Summary class, chemokines CXCL10 (24 h) [3] | Max: hours growth delay with 20 μM cathelicidin, E. coli, DMEM (E. coli O78) | Max: hours growth delay with 20 μM cathelicidin, E. coli, MHB (E. coli O78) | Max: hours growth delay with 20 μM cathelicidin, MRSA, DMEM [1] | Max: hours growth delay with 20 μM cathelicidin, MRSA, MHB ([1]; MHB) | Enhancement of CCL2 secretion after 2 h stimulation ([2]; 20 μM peptide) | Summary class, chemokines CCL2 (2 h) ([2]; peptide 0.08-20 μM) | Activity against MRSA in MHB, in words ([1]; MHB, peptide up to 20 μM) | Effect on CCL2 secretion after 24 h stimulation, in words ([2]; 24 h, peptide 0.08-20 μM)
1 | Ac-GRFRRLRKKTRKRLKKIGKVLKWIPPIVGSIPLGCG [PMAP-36, porcine α-helical cathelicidin, N-acetylated, 36 residues, charge +13] | 2.5 µM | at least 7 hours | +++ (+++ = Cmax at ≤20 μM) | 5 µM | +++ (+++ = Cmax at ≤20 μM) | 0.31 µM | +++ (+++ = Cmax at ≤20 μM) | 10 µM | +++ (+++ = Cmax at ≤20 μM) | 3–4 fold |  |  |  |  |  |  |  |  |  | 
2 | GLLRKGGEKIGEKLKKIGQKIKNFFQKLVPQPEQ [CRAMP, murine cathelicidin, 34 residues, charge +6] |  |  |  |  | ++ (++ = >8 hours inhibition at 20 μM) |  | + (+ = >4 hours inhibition at 20 μM) |  |  |  | 2–3 fold | ↑ (↑ = significant increase at 20 μM) | 2.5 h | 9.0 h | 6.5 h | 0.5 h |  |  |  | 
3 | KRRHWFPLSFQEFLEQLRRFRDQLPFP [eCATH-2, equine CATH-2, 27 residues, charge +4] |  |  |  |  | ++ (++ = >8 hours inhibition at 20 μM) |  |  |  |  |  | 2–3 fold | ↑ (↑ = significant increase at 20 μM) | 2.0 h | 9.0 h | 3.5 h | 1.5 h |  |  |  | 
4 | RFGRFLRKIRRFRPKVTITIQGSARF-NH2 [chCATH-2, chicken CATH-2, C-terminal amide, 26 residues, charge +9] | 10 µM | at least 7 hours | +++ (+++ = Cmax at ≤20 μM) | 5 µM | +++ (+++ = Cmax at ≤20 μM) | 0.31 µM | +++ (+++ = Cmax at ≤20 μM) | 2.5 µM | +++ (+++ = Cmax at ≤20 μM) |  |  |  |  |  |  |  | 3–4 fold | ↑ (↑ = significant increase at 20 μM) |  | 
5 | RIIDLLWRVRRPQKPKFVTVWVR [PMAP-23, porcine α-helical cathelicidin, 23 residues, charge +6] |  |  |  |  | ++ (++ = >8 hours inhibition at 20 μM) | 10 µM | +++ (+++ = Cmax at ≤20 μM) | 20 µM | +++ (+++ = Cmax at ≤20 μM) |  |  |  | 3.5 h | 9.5 h |  |  |  |  |  | 
6 | RRRPRPPYLPRPRPPPFFPPRLPPRIPPGFPPRFPPRFP [PR-39, porcine proline-rich cathelicidin forming a polyproline helix, 39 residues, charge +10] |  | at least 7 hours | + (+ = >4 hours inhibition at 20 μM) | 20 µM | +++ (+++ = Cmax at ≤20 μM) | 10 µM | +++ (+++ = Cmax at ≤20 μM) |  |  |  |  |  | 7.0 h |  |  | 0.5 h |  |  | no effect | non-significant
7 | RVKRFWPLVPVAINTVAAGINLYKAIRRK [chCATH-3, chicken CATH-3, 29 residues, charge +7] |  |  | + (+ = >4 hours inhibition at 20 μM) | 20 µM | +++ (+++ = Cmax at ≤20 μM) | 0.31 µM | +++ (+++ = Cmax at ≤20 μM) | 5 µM | +++ (+++ = Cmax at ≤20 μM) | 3–4 fold |  |  | 5.5 h |  |  |  | 3–4 fold | ↑↑ (↑↑ = significant increase ≤5 μM) |  | 

From paper PMC5244392, “Interspecies cathelicidin comparison reveals divergence in antimicrobial activity, TLR modulation, chemokine induction and regulation of phagocytosis” (Scientific Reports, 2017)
